Measured values: patent US12496353B2, “Synergistic effects between auristatin-based antibody drug conjugates and inhibitors of the PI3K-AKT mTOR pathway” (SEAGEN INC., priority 2010, dated 2025)
Non-standard residues stand in square brackets, D forms with d. Residues, ends and D or L forms follow the SMILES beside them. *: point of attachment. Dolaproine = CO[C@@H]([C@@H]1CCCN1)[C@@H](C)C(=O)O; Dil = CC[C@H](C)[C@H](NC)[C@@H](CC(=O)O)OC; X1 = C[C@@H](N*)[C@@H](O)c1ccccc1; NMeV = CN[C@H](C(=O)O)C(C)C

How the values were obtained:
L428 cells [1] = test: In vivo combination of cAC10-vcE and temsirolimus, B-like Hodgkin lymphoma murine xenograft; set-up: species or system NOD-SCID-gamma mice; details: for Median Days to Triple Volume: L428 xenograft, cAC10-vcE 1.0 mg/kg q4dx4 ip, temsirolimus 20 mg/kg ip
Experimental: To test combination treatments in B-like Hodgkin lymphoma in vivo, a murine xenograft model was used. L428 cells were implanted into NOD-SCID-gamma mice (The Jackson Laboratory) to generate tumors. Tumors were grown to an average of 90 mm^3, then sorted into groups of 7 mice. Mice were not treated, treated with temsirolimus (20 mg/kg), treated with cAC10-vcE (1.0 mg/kg), or treated with cAC10-vcE and temsirolimus. The cAC10-vcE was administered q4dx4 ip. The temsirolimus was administered q4dx4 ip or q3dx6 ip. In the combination treatment, the cAC10-vcE was dosed 2 days before temsirolimus. Tumor volume was measured periodically for 120 days post initial dosing. Data was plotted as a Kaplan-Meier plot showing rate of tumor tripling. P-values were calculated using the Log-rank test to confirm statistical significance.

L428 cells [2] = test: In vivo combination of cAC10-vcE and everolimus, B-like Hodgkin lymphoma murine xenograft; set-up: species or system NOD-SCID-gamma mice; details: for complete responses: L428 xenograft, day 61, groups of 10 mice, cAC10-vcE 1.0 mg/kg q4dx4 ip, everolimus 15 mg/kg po
Experimental: To test combination treatments in B-like Hodgkin lymphoma in vivo, a murine xenograft model was used. L428 cells were implanted into NOD-SCID-gamma mice (The Jackson Laboratory) to generate tumors. Tumors were grown to an average of 90 mm 3 , then sorted into groups of 10 mice. Mice were not treated, treated with everolimus (15 mg/kg), treated with cAC10 (1 mg/kg), treated with cAC10-vcE (1.0 mg/kg), treated with cAC10 and everolimus, or treated with cAC10-vcE and everolimus. The cAC10-vcE and cAC10 was administered q4dx4 ip. The everolimus was administered ql dx14 po.

Caki-2 cells = test: In vitro combination cytotoxicity (Cell Titer Glo, Chou-Talalay CI), Caki-2; assay type: cell-based; details: Caki-2 cell line; single drug
Experimental: (§1) 786-O cells were cultured in Roswell Park Memorial Institute medium (RPMI) 1640+10% fetal bovine serum (FBS). Caki-1 cells were cultured in McCoy's 5A medium+10% FBS. Caki-2 cells were cultured in McCoy's 5A medium+2% FBS. 786-O, Caki-1, and Caki-2 cells (renal cell carcinoma cell lines) were all cultured at 37° C. with 5% CO2. L540cy cells were cultured in RPMI 1640+20% FBS. L428 cells were cultured in RPMI 1640+10% FBS. L540cy and L428 cell lines are Hodgkin lymphoma cell lines. Karpas-299 cells were cultured in RPMI 1640+10% FBS. The Karpas-299 cell line is an anaplastic large cell lymphoma cell (ALCL) line. HT cells were cultured in RPMI 1640+10% FBS. Raji 4RII cells (clone-11) were a gift from Francisco J. Hernandez-Ilizaliturri and cultured in RPMI 1640+10% FBS. HT and Raji 4RH cell lines are Non-Hodgkin lymphoma cell lines. Jeko-1 cells were cultured in RPMI-1640+10% FBS . Jeko-1 cell lines are mantle cell lymphoma cell lines.
(§2) Cells were plated in 100 μL growth media per well into black-sided clear-bottom 96-well plates. […] Cytotoxicity was measured by incubating with 100 μL Cell Titer Glo (Promega) solution for 1 hour, and then luminescence was measured on a Fusion HT plate reader (Perkin Elmer). […]
(§3) (D) is the dose of the drug. […] This is determined by the x-intercept of the median-effect plot. […] It is determined by the slope of the median-effect plot. […]

786-O cells = test: In vitro combination cytotoxicity (Cell Titer Glo, Chou-Talalay CI), 786-O; assay type: cell-based; details: for cytotoxicity of the drug alone / interaction with the rapalogs temsirolimus, sirolimus, and everolimus: 786-O cell line; for cytotoxicity of the drug alone: single drug; for effect on the cytotoxicity of h1F6-mcF: RCC cell lines (786-O and Caki-2 named in the sentence before); for interaction with the rapalogs temsirolimus, sirolimus, and everolimus: FIG. 2
Experimental: as §1
Cells were plated in 100 μL growth media per well into black-sided clear-bottom 96-well plates. Next, 4× concentration working stocks of small molecule inhibitor and antibody drug conjugate were prepared, and then titrated as 2-fold serial dilutions producing 10-point dose curves. For the single drug conditions, 50 μL small molecule inhibitor or ADC or free auristatin was added to each well in quadruplicate with 50 μL of media producing a final volume of 200 μL per well. For the combination conditions, 50 μL small molecule inhibitor and 50 μL ADC or free auristatin dilution were added to the cells (overlaying the dose titrations of each drug: high to low) in quadruplicate producing a final volume of 200 μ, per well. Treated cells were incubated 96 hours at 37° C., 5% CO2. Cytotoxicity was measured by incubating with 100 μL Cell Titer Glo (Promega) solution for 1 hour, and then luminescence was measured on a Fusion HT plate reader (Perkin Elmer). Data was processed with Excel (Microsoft) and GraphPad (Prism) to produce dose response curves and calculate the fraction affected (f a) at each dose concentration. Then CalcuSyn (Biosoft) software was used to determine synergism, additivity, or antagonism for each drug combination using the median-effect equation of Chou-Talalay: D=Dm[fa/(1−fa)]^1/m Median-effect equation
(D) is the dose of the drug. (Dm) is the median-effect dose signifying the potency. This is determined by the x-intercept of the median-effect plot. (fa) is the fraction affected by the dose. (fu) is the fraction unaffected, (1−fa). (m) is an exponent signifying the sigmoidicity (shape) of the dose-effect curve. It is determined by the slope of the median-effect plot. The linear correlation coefficient “r” should be greater than or equal to 0.90. The drug concentration units are arbitrary.
Combination index (CI) values <0.9 indicate synergism, CI values 0.9-1.1 indicate additivity, and CI values >1.1 indicate antagonism.
Each combination study was repeated on separate days a total of n=3 times unless otherwise noted, and the mean combination index value reported with standard error of the mean (sem).

Caki-1 cells = test: In vitro combination cytotoxicity (Cell Titer Glo, Chou-Talalay CI), Caki-1; assay type: cell-based; details: Caki-1 cell line; FIG. 3
Experimental: as §1, §2, §3

HT cells = test: In vitro combination cytotoxicity (Cell Titer Glo, Chou-Talalay CI), HT; assay type: cell-based; details: HT cell line
Experimental: as §1, §2, §3

## cAC10-vcE: vc-MMAE (mc-vc-MMAE) antibody drug conjugate wherein the antibody is a chimeric AC10 (anti-CD30) antibody
L428 cells [1]; B-like HL murine xenograft model, FIG. 5
  interaction with temsirolimus in delaying tumor growth in vivo: synergistic
L428 cells [1]
  Median Days to Triple Volume: 52 days
L428 cells [2]; B-like HL murine xenograft model, FIG. 6
  interaction with everolimus in delaying tumor growth in vivo: synergistic
L428 cells [2]
  complete responses: no complete responses

## CO[C@H]1C[C@@H]2CC[C@@H](C)[C@@](O)(O2)C(=O)C(=O)N2CCCC[C@H]2C(=O)O[C@H]([C@H](C)C[C@@H]2CC[C@@H](OCCO)[C@H](OC)C2)CC(=O)[C@H](C)/C=C(\C)[C@@H](O)[C@@H](OC)C(=O)[C@H](C)C[C@H](C)/C=C/C=C/C=C/1C [everolimus]
L428 cells [2]
  complete responses: no complete responses

## CO[C@H]1C[C@@H]2CC[C@@H](C)[C@@](O)(O2)C(=O)C(=O)N2CCCC[C@H]2C(=O)O[C@H]([C@H](C)C[C@@H]2CC[C@@H](OC(=O)C(C)(CO)CO)[C@H](OC)C2)CC(=O)[C@H](C)/C=C(\C)[C@@H](O)[C@@H](OC)C(=O)[C@H](C)C[C@H](C)/C=C/C=C/C=C/1C [temsirolimus]
L428 cells [1]
  Median Days to Triple Volume: 56 days
Caki-2 cells
  cytotoxicity of the drug alone: not potent cytotoxic drugs except in the Caki-2 cell line grown in media with low FBS
786-O cells
  cytotoxicity of the drug alone: not potent cytotoxic drugs
  effect on the cytotoxicity of h1F6-mcF: potentiate the cytotoxicity of h1F6-mcF

## CC[C@H](C)[C@@H]([C@@H](CC(=O)N1CCC[C@H]1[C@H](OC)[C@@H](C)C(=O)N[C@H](C)[C@@H](O)c1ccccc1)OC)N(C)C(=O)[C@@H](NC(=O)[C@@H](NC)C(C)C)C(C)C [MMAE, monomethyl auristatin E] (H-[NMeV]V[Dil][Dolaproine]-X1)
786-O cells
  interaction with the rapalogs temsirolimus, sirolimus, and everolimus: synergistic
Caki-1 cells
  interaction with the rapalogs temsirolimus and sirolimus: synergistic

## CO[C@H]1C[C@@H]2CC[C@@H](C)[C@@](O)(O2)C(=O)C(=O)N2CCCC[C@H]2C(=O)O[C@H]([C@H](C)C[C@@H]2CC[C@@H](O)[C@H](OC)C2)CC(=O)[C@H](C)/C=C(\C)[C@@H](O)[C@@H](OC)C(=O)[C@H](C)C[C@H](C)/C=C/C=C/C=C/1C [sirolimus, rapamycin]
Caki-2 cells
  cytotoxicity of the drug alone: not potent cytotoxic drugs except in the Caki-2 cell line grown in media with low FBS
786-O cells
  cytotoxicity of the drug alone: not potent cytotoxic drugs
  effect on the cytotoxicity of h1F6-mcF: potentiate the cytotoxicity of h1F6-mcF

B1: h1F6-mcF (conjugate, chains of the INN, looked up)
VH: QVQLVQSGAEVKKPGASVKVSCKASGYTFTNYGMNWVRQAPGQGLKWMGWINTYTGEPTYADAFKGRVTMTRDTSISTAYMELSRLRSDDTAVYYCARDYGDYGMDYWGQGTTVTVSS
VL: DIVMTQSPDSLAVSLGERATINCRASKSVSTSGYSFMHWYQQKPGQPPKLLIYLASNLESGVPDRFSGSGSGTDFTLTISSLQAEDVAVYYCQHSREVPWTFGQGTKVEIK
modifications: maleimidocaproyl-MMAF (mcF) drug conjugate
786-O cells
  interaction with the rapalogs temsirolimus, sirolimus, and everolimus: synergistic
Caki-1 cells
  interaction with the rapalogs temsirolimus and sirolimus: synergistic

B2: hBU12-mcF (conjugate, chains of the INN, looked up)
VH: QVQLQESGPGLVKPSQTLSLTCTVSGGSISTSGMGVGWIRQHPGKGLEWIGHIWWDDDKRYNPALKSRVTISVDTSKNQFSLKLSSVTAADTAVYYCARMELWSYYFDYWGQGTLVTVSS
VL: EIVLTQSPATLSLSPGERATLSCSASSSVSYMHWYQQKPGQAPRLLIYDTSKLASGIPARFSGSGSGTDFTLTISSLEPEDVAVYYCFQGSVYPFTFGQGTKLEIK
modifications: maleimidocaproyl-MMAF (mcF) drug conjugate
HT cells
  interaction with the rapalogs temsirolimus and sirolimus: synergistic
